Assay results reported in patent publication USH1209H, “No-carrier-added (18F)-N-methylspiroperidol” (The United States of America as represented by the United …, priority 1985, dated 1993).

Legend:
dopamine receptors = test: PETT baboon studies: striatum and cerebellum radioactivity after i.v. [^18 F]-N-methylspiroperidol, with (-)- or (+)-butaclamol pretreatment; conditions: for effect of butaclamol pretreatment on striatal distribution of [^18 F]-N-methylspiroperidol: 0.5 mg/kg i.v. pretreatment
Excerpt: (§1) A young adult (12 kg) female baboon (Papio anubis) was anesthesized initially with ketamine and subsequently maintained under halothane/nitrous oxide anesthesia for two PETT studies. […] Pett scans were made continually for 4 hrs from the time of radioisotope injection.

dopamine receptor = conditions: cited from earlier work; for prevention of striatal retention of [^18 F]spiroperidol and [^18 F]benperidol: prior administration of butaclamol enantiomer; for retention by the striatum compared with [^18 F]haloperidol: region of high dopamine receptor density
[1] = Metabolic stability and uptake in rat brain (striatum, cerebellum); format: in vivo, rat (male BNL R strain); conditions: rat brain
[2] = Baboon plasma analyses (total plasma radioactivity clearance and unchanged radioligand); conditions: baboon, plasma, plasma radioactivity due to unaltered radioligand, baboon plasma, 10 mins after injection
Excerpt: as §1
Blood was sampled from the femoral artery at initial intervals of 5 secs. Aliquots of plasma were counted to determine the total plasma radioactivity of clearance curves.

| SMILES | effect of butaclamol pretreatment on striatal distribution of [^18 F]-N-methylspiroperidol (dopamine receptors) | prevention of striatal retention of [^18 F]spiroperidol and [^18 F]benperidol (dopamine receptor) | crossing of the blood brain barrier compared with [^18 F]haloperidol (dopamine receptor; in vivo) | retention by the striatum compared with [^18 F]haloperidol (dopamine receptor) | further results |
| --- | --- | --- | --- | --- | --- |
| CC(C)(C)C1(O)CCN2CC3c4ccccc4CCc4cccc(c43)C2C1 (single isomer, unassigned; (+)) [(+)-butaclamol, reference compound] | stereospecific blocking of dopamine receptors in the striatum | prevented |  |  |  |
| CC(C)(C)C1(O)CCN2CC3c4ccccc4CCc4cccc(c43)C2C1 (single isomer, unassigned; (-)) [(-)-butaclamol, reference compound] | normal distribution of radioligand | not |  |  |  |
| O=C(CCCN1CCC(n2c(=O)[nH]c3ccccc32)CC1)c1ccc([18F])cc1 [[^18 F]benperidol] |  |  | to a lesser extent than [^18 F]haloperidol | retained to a greater degree by the striatum |  |
| O=C(CCCN1CCC2(CC1)C(=O)NCN2c1ccccc1)c1ccc([18F])cc1 [[^18 F]spiroperidol] |  |  | to a lesser extent than [^18 F]haloperidol | retained to a greater degree by the striatum | specifically bound component of radioactivity in the striatum (striatum minus cerebellum) (dopamine receptors; 4 hrs after injection): still increasing at 4 hrs after injection; metabolism in the rat brain [1]: very little metabolism; remaining at 10 min [2]: 72%; uptake into the brain (dopamine receptor; baboons): 0.5-1.0 % of the injected dose; clearance from the striatal areas (dopamine receptor; up to 8 hrs. after injection): no clearance |
| O=C(CCCN1CCC(O)(c2ccc(Cl)cc2)CC1)c1ccc(F)cc1 [haloperidol] |  |  |  |  | brain uptake compared with spiroperidol or benperidol (dopamine receptor; in vivo): higher than spiroperidol or benperidol; egress from the brain (dopamine receptor; in vivo): rapid egress; nonspecific binding (dopamine receptor; in vivo): relatively high nonspecific binding |
